The record followed here is publication PMC3735122 (mBio, 2013).

What all share (assay type): cell-based, influenza virus H7N9
The subject of one experiment is A/Shanghai/2/2013 virus. The experiment is described as follows: organism not typed.
Experiment [1] has as its system A/Shanghai/1/2013-NA^R292 (WT no. 6) virus. The experiment is described as follows: organism not typed.
Experiment [2] has as its system A/Shanghai/1/13 virus (mixed R/K at NA residue 292).
The mark [3] stands for this setting: MDCK, read-out: 90% effective concentration [EC90].

Consider `CC(=O)N[C@H]1[C@H]([C@H](O)[C@H](O)CO)OC(C(=O)O)=C[C@@H]1N=C(N)N` [zanamivir], for which the “concentration at which replication was completely inhibited” value in the experiment with A/Shanghai/2/2013 virus was determined as 125 µM. In experiment [1], the “concentration at which replication was completely inhibited” value is over 125 µM and the “sensitivity in MDCK cells compared to the A/Shanghai/2/2013 virus” value was “reduced sensitivity”.
As to `NC(=O)c1nc(F)c[nH]c1=O` [favipiravir], in experiment [2], the “sensitivity in MDCK cells relative to the A/Shanghai/2/2013 virus” value was “comparable dose-response curves”. Also, the EC90 worked out at 1430 nM in the experiment on A/Shanghai/2/2013 virus (setting [3]) and 10.4 µM in experiment [1] (setting [3]).
As for `CCC(CC)O[C@@H]1C=C(C(=O)O)C[C@H](N)[C@H]1NC(C)=O` [oseltamivir carboxylate], the “concentration at which replication was completely inhibited” value with A/Shanghai/2/2013 virus is recorded as 31.25 µM. In addition, in experiment [1], the “concentration at which replication was completely inhibited” value came out at 250 µM and the “sensitivity in MDCK cells compared to the A/Shanghai/2/2013 virus” value is “reduced sensitivity”.
